By EC50 is commonly meant the concentration that produces a half-maximal response.

Molecules are shown by their SMILES.

EC50 data for 13 compounds are collected here from patent US20140221361A1, “C-19 MODIFIED TRITERPENOIDS WITH HIV MATURATION INHIBITORY ACTIVITY” (priority 2013, published 2014).

For this test, the system named is recombinant NL4-3 virus (Renilla luciferase in nef, Gag P373S). Briefly: HIV cell culture assay (luciferase reporter, MT-2 cells). The format is cell-based, HIV-1. The note with it: Renilla, NL43, MT-2 cells infected for 4-5 days with NLRluc recombinants; luciferase activity; serial dilutions of inhibitor. The method, then:
MT-2 cells and 293T cells were obtained from the NIH AIDS Research and Reference Reagent Program. MT-2 cells were propagated in RPMI 1640 media supplemented with 10% heat inactivated fetal bovine serum, […]. The 293T cells were propagated in DMEM media supplemented with 10% heat inactivated fetal bovine serum (FBS), 100 units/ml penicillin G and 100 µg/ml streptomycin. The proviral DNA clone of NL4-3 was obtained from the NIH AIDS Research and Reference Reagent Program. A recombinant NL4-3 virus, in which a section of the nef gene from NL4-3 was replaced with the Renilla luciferase gene, was used as a reference virus. In addition, residue Gag P373 was converted to P373S. Briefly, the recombinant virus was prepared by transfection of the altered proviral clone of NL4-3. Transfections were performed in 293T cells using LipofectAMINE PLUS from Invitrogen (Carlsbad, Calif.), according to manufacturer's instruction. The virus was titered in MT-2 cells using luciferase enzyme activity as a marker. Luciferase was quantitated using the Dual Luciferase kit from Promega (Madison, Wis.), with modifications to the manufacturer's protocol. The diluted Passive Lysis solution was pre-mixed with the re-suspended Luciferase Assay Reagent and the re-suspended Stop & Glo Substrate (2:1:1 ratio). Fifty (50) μL of the mixture was added to each aspirated well on assay plates and luciferase activity was measured immediately on a Wallac TriLux (Perkin-Elmer). Antiviral activities of inhibitors toward the recombinant virus were quantified by measuring luciferase activity in cells infected for 4-5 days with NLRluc recombinants in the presence serial dilutions of the inhibitor.
For the compound `C=C(CN(C)C)[C@@H]1CC[C@]2(C(=O)O)CC[C@]3(C)[C@H](CC[C@@H]4[C@@]5(C)CC=C(c6ccc(C(=O)O)cc6)C(C)(C)[C@@H]5CC[C@]43C)[C@@H]12` [Example 3, (1R,3aS,5aR,5bR,7aR,11aS,11bR,13aR,13bS)-9-(4-carboxyphenyl)-1-(3-(dimethylamino)prop-1-en-2-yl)-5a,5b,8,8,11a-pentamethyl-2,3,3a,4,5,5a,5b,6,7,7a,8,11,11a,11b,12,13,13a,13b-octadecahydro-1H-cyclopenta[a]chrysene-3a-carboxylic acid], the EC50 amounted to 100 nM.

With `C=C(CO)[C@@H]1CC[C@]2(N)CC[C@]3(C)[C@H](CC[C@@H]4[C@@]5(C)CC=C(c6ccc(C(=O)O)c(F)c6)C(C)(C)[C@@H]5CC[C@]43C)[C@@H]12` [Example A2], the EC50 stood at 10 nM.

As to `CNC(=O)[C@@H]1CC[C@]2(NCCN3CCS(=O)(=O)CC3)CC[C@]3(C)[C@H](CC[C@@H]4[C@@]5(C)CC=C(c6ccc(C(=O)O)cc6)C(C)(C)[C@@H]5CC[C@]43C)[C@@H]12` [Example B28, 4-((1R,3aS,5aR,5bR,7aR,11aS,11bR,13aR,13bS)-3a-((2-(1,1-dioxidothiomorpholino)ethyl)amino)-5a,5b,8,8,11a-pentamethyl-1-(methylcarbamoyl)-2,3,3a,4,5,5a,5b,6,7,7a,8,11,11a,11b,12,13,13a,13b-octadecahydro-1H-cyclopenta[a]chrysen-9-yl)benzoic acid], the EC50 is 110 nM. As for `C=C(CNCCN(C)C)[C@@H]1CC[C@]2(C(=O)NCCC(=O)O)CC[C@]3(C)[C@H](CC[C@@H]4[C@@]5(C)CC=C(c6ccc(C(=O)O)cc6)C(C)(C)[C@@H]5CC[C@]43C)[C@@H]12` [Example 9, 4-((1R,3aS,5aR,5bR,7aR,11aS,11bR,13aR,13bS)-3a-(2-carboxyethylcarbamoyl)-1-(3-(2-(dimethylamino)ethylamino)prop-1-en-2-yl)-5a,5b,8,8,11a-pentamethyl-2,3,3a,4,5,5a,5b,6,7,7a,8,11,11a,11b,12,13,13a,13b-octadecahydro-1H-cyclopenta[a]chrysen-9-yl)benzoic acid], the EC50 was 90 nM.

Regarding `CC(CF)[C@@H]1CC[C@]2(NCCN3CCS(=O)(=O)CC3)CC[C@]3(C)[C@H](CC[C@@H]4[C@@]5(C)CC=C(c6ccc(C(=O)O)cc6)C(C)(C)[C@@H]5CC[C@]43C)[C@@H]12` (single isomer, unassigned) [Example B8], the EC50 worked out at 2.51 nM. Regarding `C=C(CN(C)CCN(C)C)[C@@H]1CC[C@]2(C(=O)NCCN(C)C)CC[C@]3(C)[C@H](CC[C@@H]4[C@@]5(C)CC=C(c6ccc(C(=O)O)cc6)C(C)(C)[C@@H]5CC[C@]43C)[C@@H]12` [Example 8, 4-((1R,3aS,5aR,5bR,7aR,11aS,11bR,13aR,13bS)-1-(3-((2-(dimethylamino)ethyl)(methyl)amino)prop-1-en-2-yl)-3a-(2-(dimethylamino)ethylcarbamoyl)-5a,5b,8,8,11a-pentamethyl-2,3,3a,4,5,5a,5b,6,7,7a,8,11,11a,11b,12,13,13a,13b-octadecahydro-1H-cyclopenta[a]chrysen-9-yl)benzoic acid], the EC50 is 1.49 nM. For the compound `C=C(COCCN1CCOCC1)[C@@H]1CC[C@]2(C(=O)NCCNCC(=O)O)CC[C@]3(C)[C@H](CC[C@@H]4[C@@]5(C)CC=C(c6ccc(C(=O)O)cc6)C(C)(C)[C@@H]5CC[C@]43C)[C@@H]12` [Example 17, 4-((1R,3aS,5aR,5bR,7aR,11aS,11bR,13aR,13bS)-3a-(2-(carboxymethylamino)ethylcarbamoyl)-5a,5b,8,8,11a-pentamethyl-1-(3-(2-morpholinoethoxy)prop-1-en-2-yl)-2,3,3a,4,5,5a,5b,6,7,7a,8,11,11a,11b,12,13,13a,13b-octadecahydro-1H-cyclopenta[a]chrysen-9-yl)benzoic acid], the concentration for a half-maximal effect (EC50) turned out to be 80 nM. As for `COC(=O)NC(C)[C@@H]1CC[C@]2(NCCN3CCS(=O)(=O)CC3)CC[C@]3(C)[C@H](CC[C@@H]4[C@@]5(C)CC=C(c6ccc(C(=O)O)cc6)C(C)(C)[C@@H]5CC[C@]43C)[C@@H]12` (stereo partly drawn) [Example B22, 4-((1R,3aS,5aR,5bR,7aR,11aS,11bR,13aR,13bS)-3a-((2-(1,1-dioxidothiomorpholino)ethyl)amino)-1-(1-((methoxycarbonyl)amino)ethyl)-5a,5b,8,8,11a-pentamethyl-2,3,3a,4,5,5a,5b,6,7,7a,8,11,11a,11b,12,13,13a,13b-octadecahydro-1H-cyclopenta[a]chrysen-9-yl)benzoic acid], the EC50 was 1.02 nM. To `CC1([C@@H]2CC[C@]3(N)CC[C@]4(C)[C@H](CC[C@@H]5[C@@]6(C)CC[C@H](c7ccc(C(=O)O)cc7)C(C)(C)[C@@H]6CC[C@]54C)[C@@H]23)CC1` [Example B54, 4-((1R,3aS,5aR,5bR,7aS,9S,11aS,11bR,13aR,13bR)-3a-amino-5a,5b,8,8,11a-pentamethyl-1-(1-methylcyclopropyl)icosahydro-1H-cyclopenta[a]chrysen-9-yl)benzoic acid] belongs 0.577 nM; to `COCC(C)[C@@H]1CC[C@]2(NCCN3CCS(=O)(=O)CC3)CC[C@]3(C)[C@H](CC[C@@H]4[C@@]5(C)CC=C(c6ccc(C(=O)O)cc6)C(C)(C)[C@@H]5CC[C@]43C)[C@@H]12` (stereo partly drawn) [Example B7, 4-((1R,3aS,5aR,5bR,7aR,11aS,11bR,13aR,13bR)-3a-((2-(1,1-dioxidothiomorpholino)ethyl)amino)-1-(1-methoxypropan-2-yl)-5a,5b,8,8,11a-pentamethyl-2,3,3a,4,5,5a,5b,6,7,7a,8,11,11a,11b,12,13,13a,13b-octadecahydro-1H-cyclopenta[a]chrysen-9-yl)benzoic acid], 0.945 nM; to `CC(O)[C@@H]1CC[C@]2(NCCN3CCS(=O)(=O)CC3)CC[C@]3(C)[C@H](CC[C@@H]4[C@@]5(C)CC=C(c6ccc(C(=O)O)cc6)C(C)(C)[C@@H]5CC[C@]43C)[C@@H]12` (single isomer, unassigned) [Example B11], 2.18 nM. `CC1(C)C(c2ccc(C(=O)O)cc2)=CC[C@]2(C)[C@H]3CC[C@@H]4[C@H]5[C@H](CO)CC[C@]5(NCCN5CCS(=O)(=O)CC5)CC[C@@]4(C)[C@]3(C)CC[C@@H]12` [Example B42, 4-((1R,3aS,5aR,5bR,7aR,11aS,11bR,13aR,13bS)-3a-((2-(1,1-dioxidothiomorpholino)ethyl)amino)-1-(hydroxymethyl)-5a,5b,8,8,11a-pentamethyl-2,3,3a,4,5,5a,5b,6,7,7a,8,11,11a,11b,12,13,13a,13b-octadecahydro-1H-cyclopenta[a]chrysen-9-yl)benzoic acid]: the EC50 was 40 nM. For the compound `C=C(CNCCC(=O)O)[C@@H]1CC[C@]2(C(=O)O)CC[C@]3(C)[C@H](CC[C@@H]4[C@@]5(C)CC=C(c6ccc(C(=O)O)cc6)C(C)(C)[C@@H]5CC[C@]43C)[C@@H]12` [Example 6, (1R,3aS,5aR,5bR,7aR,11aS,11bR,13aR,13bS)-1-(3-(2-carboxyethylamino)prop-1-en-2-yl)-9-(4-carboxyphenyl)-5a,5b,8,8,11a-pentamethyl-2,3,3a,4,5,5a,5b,6,7,7a,8,11,11a,11b,12,13,13a,13b-octadecahydro-1H-cyclopenta[a]chrysene-3a-carboxylic acid], the EC50 was 4000 nM.
